Earlier results, collected in US8288342B2, “Methods for treating vasomotor symptoms in castrated prostatic cancer patients with low dose cyproterone acetate” (priority 2008, dated 2012).

System: hot flashes
Details: 37 subjects with bothersome hot flashes; cited from earlier work

CC(=O)O[C@]1(C(C)=O)CC[C@H]2[C@@H]3C=C(C)C4=CC(=O)CC[C@]4(C)[C@H]3CC[C@@]21C [MA, megestrol acetate]
Therapeutic efficacy: reduction in hot flashes: 70%
